The text below walks through data of patent US20230159556A1, “NOVEL PROTEIN KINASE INHIBITORS” (TENOVA PHARMACEUTICALS INC., priority 2020, published 2023).

The target of one data set is T1, EGFR_L858R/T790M/C797S (Homo sapiens, UniProt P00533, C797S/L858R/T790M).
T1 construct: Reaction Biology Corporation (contract assay provider)
Briefly: In vitro biochemical kinase assay (33P-ATP filter-binding, Reaction Biology). As to the method:
(§1) The biochemical kinase assay was performed at Reaction Biology Corporation (www.reactionbiology.com, Malvern, Pa.) following procedures described in the reference (Anastassiadis, T, et al, Nature Biotechnology, 2011, 29, 1039). Base Reaction buffer includes 20 mM Hepes (pH 7.5), 10 mM MgCl2, 1 mM EGTA, 0.02% Brij35, 0.02 mg/ml BSA, 0.1 mM Na3VO4, 2 mM DTT and 1% DMSO. Required cofactors are added individually to each kinase reaction. Testing compounds were dissolved in 100% DMSO to specific concentration. The serial dilution was conducted by Integra Viaflo Assist in DMSO. Compounds in 100% DMSO are into the kinase reaction mixture by Acoustic technology (Echo550; nanoliter range), incubate for 20 min at room temperature, followed by ^33P-ATP and incubation for 2 hours at room temperature. Radioactivity was then detected by filter-binding method. Kinase activity data were expressed as the percent remaining kinase activity in test samples compared to vehicle (dimethyl sulfoxide) reactions. IC50 values and curve fits were obtained using Prism (GraphPad Software).

The conditions of data set [1]: from COc1cc(N2CCC(N3CCN(C)CC3)CC2)c(NC(=O)CCCBr)cc1Nc1ncc(Cl)c(Nc2ccc(O)cc2N(C)S(C)(=O)=O)n1; ether bond; K2CO3/KI; DMF; 20.0 mM; 25.0 °C; 16.0 h.
The next data set has as its system Ba/F3_WT cell. Briefly: BaF3 cell proliferation assay (CelltiterGlo, 72 hr). The format is cell-based. The following applies: Mus musculus, 72 hr incubation. As to the method:
(§2) The BaF3 cell proliferation assay was performed at Pharmaron (www.pharmaron.com, Beijing, China). The Ba/F3_WT and Ba/F3_Del19/T790M/C797S cell lines were maintained in 1640 medium containing 10% FBS, 1*PS and 1*Glutamax. Only cells with viability greater than 90% are used for assays. Dispense 30 μl of cell suspension at 700/well into 384 well microplate, add 30 nl compound solution into 384 cell plate by Echo, cells were incubated for 72 hr in 37° C./5% CO2 incubator, add 30 μl reagent CelltiterGlo assay kit (CTG, Promega) per well and shake plates, incubate the plate (avoiding light) at 37° C./5% CO2 for 30 min. and read the luminescence by Envision. The luminescence values were converted to % Inhibition. Calculate IC50 by fitting % inhibition values and log of compound concentrations to nonlinear regression (dose response−variable slope) with Graphpad 5.0.
(§3) Y=Bottom+(Top−Bottom)/(1+10^((Log IC50−X)*HillSlope))
(§4) X: log of inhibitor concentration; Y: % Inhibition.
(In ATP-based viability assays light output follows the ATP content of the culture.)

Data set [2] deals with Ba/F3_EGFR_del19/T790M/C797S cell (Homo sapiens, UniProt P00533, T790M/C797S, cells depend on it, form not given). The data set is described as above. The conditions noted are these: 72 hr incubation; read-out: IC50 (nM, Ba/F3_EGFR_del19/T790M/C797S cell proliferation). It counts as cell-based. As to the method:
as §2, §3, §4

For a further data set, the target named is T2, EGFR_WT (Homo sapiens, UniProt P00533).
T2 construct: Reaction Biology Corporation (contract assay provider)
T2 sequence (P00533 25-1210): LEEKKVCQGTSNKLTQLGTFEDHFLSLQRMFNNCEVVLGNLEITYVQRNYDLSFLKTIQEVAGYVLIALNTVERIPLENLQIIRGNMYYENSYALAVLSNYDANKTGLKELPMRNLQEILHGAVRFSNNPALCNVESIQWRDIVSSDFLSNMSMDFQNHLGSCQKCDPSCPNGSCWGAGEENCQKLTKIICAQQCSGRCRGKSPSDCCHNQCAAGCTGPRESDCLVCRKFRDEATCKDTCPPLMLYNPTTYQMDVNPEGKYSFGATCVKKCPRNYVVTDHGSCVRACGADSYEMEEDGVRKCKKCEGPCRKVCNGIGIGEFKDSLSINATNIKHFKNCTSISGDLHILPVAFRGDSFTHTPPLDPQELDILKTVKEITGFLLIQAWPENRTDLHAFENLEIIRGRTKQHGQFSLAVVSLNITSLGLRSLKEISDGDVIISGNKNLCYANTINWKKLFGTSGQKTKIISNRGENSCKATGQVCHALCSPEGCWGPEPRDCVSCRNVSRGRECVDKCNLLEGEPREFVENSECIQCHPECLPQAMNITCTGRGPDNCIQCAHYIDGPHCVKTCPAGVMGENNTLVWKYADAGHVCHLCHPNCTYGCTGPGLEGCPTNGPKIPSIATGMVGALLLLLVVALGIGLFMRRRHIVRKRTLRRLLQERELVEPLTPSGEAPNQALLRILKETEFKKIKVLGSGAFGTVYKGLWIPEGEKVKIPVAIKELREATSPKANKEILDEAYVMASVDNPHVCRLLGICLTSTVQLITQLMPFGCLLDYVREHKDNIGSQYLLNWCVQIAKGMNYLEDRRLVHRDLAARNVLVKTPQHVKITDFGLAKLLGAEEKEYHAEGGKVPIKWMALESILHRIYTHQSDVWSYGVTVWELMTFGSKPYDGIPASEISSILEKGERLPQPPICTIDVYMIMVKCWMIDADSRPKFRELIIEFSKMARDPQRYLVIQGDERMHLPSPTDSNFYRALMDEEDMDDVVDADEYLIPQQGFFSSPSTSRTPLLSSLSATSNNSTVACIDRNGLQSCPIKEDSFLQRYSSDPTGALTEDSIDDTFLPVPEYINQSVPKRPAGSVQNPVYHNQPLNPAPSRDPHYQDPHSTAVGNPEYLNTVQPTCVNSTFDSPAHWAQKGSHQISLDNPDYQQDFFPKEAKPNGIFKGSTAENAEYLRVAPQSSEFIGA
Briefly: In vitro biochemical kinase assay (33P-ATP filter-binding, Reaction Biology). As to the method:
as §1

Ba/F3_EGFR_del19/T790M/C797S cell, sequence (P00533 with tags, fused parts or gaps DEL746-750/T790M/C797S, form open): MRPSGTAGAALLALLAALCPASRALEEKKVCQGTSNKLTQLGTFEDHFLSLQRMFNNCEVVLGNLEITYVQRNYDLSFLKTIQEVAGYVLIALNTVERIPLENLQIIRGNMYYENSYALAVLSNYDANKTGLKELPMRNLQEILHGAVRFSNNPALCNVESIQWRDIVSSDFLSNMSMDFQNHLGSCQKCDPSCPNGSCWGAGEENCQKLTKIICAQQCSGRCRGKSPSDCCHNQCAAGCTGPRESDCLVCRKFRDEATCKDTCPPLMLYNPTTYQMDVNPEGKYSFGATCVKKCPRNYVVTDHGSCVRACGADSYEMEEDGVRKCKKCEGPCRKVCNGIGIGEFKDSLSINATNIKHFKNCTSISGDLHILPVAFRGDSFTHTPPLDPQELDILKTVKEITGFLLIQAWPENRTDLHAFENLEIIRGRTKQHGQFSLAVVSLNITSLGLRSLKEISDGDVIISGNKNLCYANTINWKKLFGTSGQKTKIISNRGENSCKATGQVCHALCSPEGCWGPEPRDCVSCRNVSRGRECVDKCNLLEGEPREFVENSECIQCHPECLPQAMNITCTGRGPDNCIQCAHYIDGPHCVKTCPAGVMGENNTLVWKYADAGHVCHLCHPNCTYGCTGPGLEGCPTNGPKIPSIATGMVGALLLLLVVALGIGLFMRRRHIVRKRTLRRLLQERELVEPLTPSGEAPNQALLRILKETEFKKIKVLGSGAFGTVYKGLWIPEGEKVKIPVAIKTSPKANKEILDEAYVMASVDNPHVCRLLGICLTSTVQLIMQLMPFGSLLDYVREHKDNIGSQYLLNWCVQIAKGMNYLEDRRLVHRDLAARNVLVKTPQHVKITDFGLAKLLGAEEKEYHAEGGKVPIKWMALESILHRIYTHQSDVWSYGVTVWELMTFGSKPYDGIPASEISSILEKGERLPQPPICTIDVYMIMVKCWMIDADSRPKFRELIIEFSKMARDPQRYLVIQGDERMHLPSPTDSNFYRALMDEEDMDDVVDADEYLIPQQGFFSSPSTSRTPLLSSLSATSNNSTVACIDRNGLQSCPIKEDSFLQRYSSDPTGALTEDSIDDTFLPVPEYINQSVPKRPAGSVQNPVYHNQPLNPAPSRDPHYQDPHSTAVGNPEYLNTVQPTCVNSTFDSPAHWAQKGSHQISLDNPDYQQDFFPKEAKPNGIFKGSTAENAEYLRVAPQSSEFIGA
T1 sequence (P00533 25-1210 T790M/C797S/L858R): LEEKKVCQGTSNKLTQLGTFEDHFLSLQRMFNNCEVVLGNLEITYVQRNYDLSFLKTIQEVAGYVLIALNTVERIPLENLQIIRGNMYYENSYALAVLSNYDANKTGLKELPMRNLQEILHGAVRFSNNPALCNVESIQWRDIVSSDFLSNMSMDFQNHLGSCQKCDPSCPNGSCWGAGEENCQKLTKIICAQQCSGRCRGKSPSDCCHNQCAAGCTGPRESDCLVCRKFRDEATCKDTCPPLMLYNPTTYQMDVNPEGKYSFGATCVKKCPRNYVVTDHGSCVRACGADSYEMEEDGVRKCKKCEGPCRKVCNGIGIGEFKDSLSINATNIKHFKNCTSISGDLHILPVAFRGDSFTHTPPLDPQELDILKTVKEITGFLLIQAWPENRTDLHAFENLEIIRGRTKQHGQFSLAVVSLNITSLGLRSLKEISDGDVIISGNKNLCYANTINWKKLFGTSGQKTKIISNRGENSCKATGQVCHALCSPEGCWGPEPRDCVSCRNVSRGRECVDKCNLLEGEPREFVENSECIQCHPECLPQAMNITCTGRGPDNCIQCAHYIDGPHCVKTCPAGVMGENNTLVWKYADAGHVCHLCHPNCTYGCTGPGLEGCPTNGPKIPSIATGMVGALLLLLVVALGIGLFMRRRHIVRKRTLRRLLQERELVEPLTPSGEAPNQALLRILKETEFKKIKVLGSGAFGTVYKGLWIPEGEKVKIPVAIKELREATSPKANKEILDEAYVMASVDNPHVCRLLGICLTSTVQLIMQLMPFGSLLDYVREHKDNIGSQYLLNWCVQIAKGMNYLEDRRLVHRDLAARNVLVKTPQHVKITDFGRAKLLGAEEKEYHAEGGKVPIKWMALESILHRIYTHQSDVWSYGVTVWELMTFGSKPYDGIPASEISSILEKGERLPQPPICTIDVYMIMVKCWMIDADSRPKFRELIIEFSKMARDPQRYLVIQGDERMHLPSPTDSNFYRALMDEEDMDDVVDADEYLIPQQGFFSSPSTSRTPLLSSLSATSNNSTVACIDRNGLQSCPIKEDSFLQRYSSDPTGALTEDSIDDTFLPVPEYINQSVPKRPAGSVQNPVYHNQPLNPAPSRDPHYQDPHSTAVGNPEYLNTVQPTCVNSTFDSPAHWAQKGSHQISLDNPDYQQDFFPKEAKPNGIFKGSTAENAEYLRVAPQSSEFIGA

As for `COc1cc(N2CCC(N3CCN(C)CC3)CC2)c2cc1Nc1ncc(Cl)c(n1)Nc1ccc(cc1N(C)S(C)(=O)=O)OCCCC(=O)N2` [Compound A39, N-(3^5-chloro-1^6-methoxy-1^4-(4-(4-methylpiperazin-1-yl)piperidin-1-yl)-10-oxo-6-oxa-2,4,11-triaza-3(2,4)-pyrimidina-1(1,3),5(1,4)-dibenzenacycloundecaphane-5^2-yl)-N-methylmethanesulfonamide], the IC50 (in general, the concentration that inhibits the measured activity by half) on EGFR_L858R/T790M/C797S stood at 7.1 nM. This compound showed a ring closure, yield of all isomers in data set [1] of 4.2%.

Turning to `COc1cc(N2CCC(N3CCN(C)CC3)CC2)c2cc1Nc1ncc(Cl)c(n1)Nc1ccc(cc1N(C)S(C)(=O)=O)OCCCCC2` [Compound A9, N-(3^5-chloro-1^6-methoxy-1^4-(4-(4-methylpiperazin-1-yl)piperidin-1-yl)-6-oxa-2,4-diaza-3(2,4)-pyrimidina-1(1,3),5(1,4)-dibenzenacycloundecaphane-5^2-yl)-N-methylmethanesulfonamide], the IC50 in the data set on Ba/F3_WT cell was determined as 1390 nM; at EGFR_L858R/T790M/C797S it was 0.5 nM; at EGFR_WT it was 5.9 nM. Also, in data set [2], the GI50 came to 34 nM.

In the case of `COc1cc(N2C[C@H]3CN(C)C[C@H]3C2)c2cc1Nc1ncc(Cl)c(n1)Nc1ccc(cc1N(C)S(C)(=O)=O)OCCCCC2` [Compound A28, N-(3^5-chloro-1^6-methoxy-1^4-((cis-3,6)-5-methylhexahydropyrrolo[3,4-c]pyrrol-2(1H)-yl)-6-oxa-2,4-diaza-3(2,4)-pyrimidina-1(1,3),5(1,4)-dibenzenacycloundecaphane-5^2-yl)-N-methylmethanesulfonamide], the IC50 with Ba/F3_WT cell was 2970 nM; on EGFR_L858R/T790M/C797S it was 1.4 nM. In data set [2], the GI50 is 194 nM.

Turning to `COc1cc(N2CCN(C)CC2)c2cc1Nc1ncc(C(F)(F)F)c(n1)Nc1ccc(cc1N(C)S(C)(=O)=O)OCCCCC2` [Compound A13, N-(1^6-methoxy-1^4-(4-methylpiperazin-1-yl)-3^5-(trifluoromethyl)-6-oxa-2,4-diaza-3(2,4)-pyrimidina-1(1,3),5(1,4)-dibenzenacycloundecaphane-5^2-yl)-N-methylmethanesulfonamide], the IC50 was determined as 3770 nM with Ba/F3_WT cell and 2 nM at EGFR_L858R/T790M/C797S. Also, in data set [2], the GI50 is 108 nM.

Take `COc1cc(N2CCC(N3CCN(C)CC3)CC2)c2cc1Nc1ncc(Br)c(n1)Nc1ccc(cc1P(C)(C)=O)OCCCCC2` [Compound A33, (3^5-bromo-1^6-methoxy-1^4-(4-(4-methylpiperazin-1-yl)piperidin-1-yl)-6-oxa-2,4-diaza-3(2,4)-pyrimidina-1(1,3),5(1,4)-dibenzenacycloundecaphane-5^2-yl)dimethylphosphine oxide]: the IC50 worked out at 6490 nM in the data set on Ba/F3_WT cell, 1.8 nM on EGFR_L858R/T790M/C797S and 413 nM at EGFR_WT. Besides, the GI50 in data set [2] was 75 nM.

Regarding `COc1cc(N2CCN(C)CC2)c2cc1Nc1ncc(Br)c(n1)Nc1ccc(cc1P(C)(C)=O)OCCCC2` [Compound A35, (3^5-bromo-1^6-methoxy-1^4-(4-methylpiperazin-1-yl)-6-oxa-2,4-diaza-3(2,4)-pyrimidina-1(1,3),5(1,4)-dibenzenacyclodecaphane-5^2-yl)dimethylphosphine oxide], the half-inhibitory concentration (IC50) in the data set with Ba/F3_WT cell amounted to 2240 nM; on EGFR_L858R/T790M/C797S, 289 nM. Further, the GI50 in data set [2] is 1050 nM.

Turning to `COc1cc(N2CCC(N3CCOCC3)CC2)c2cc1Nc1ncc(Cl)c(n1)Nc1ccc(cc1N(C)S(C)(=O)=O)OCCCCC2` [Compound A32, N-(3^5-chloro-1^6-methoxy-1^4-(4-morpholinopiperidin-1-yl)-6-oxa-2,4-diaza-3(2,4)-pyrimidina-1(1,3),5(1,4)-dibenzenacycloundecaphane-5^2-yl)-N-methylmethanesulfonamide], the IC50 in the data set with Ba/F3_WT cell was 4840 nM; at EGFR_L858R/T790M/C797S it was 0.6 nM. Moreover, the GI50 in data set [2] was 106 nM.

Consider `COc1cc(N2CCC(N(C)C)CC2)c2cc1Nc1ncc(Cl)c(n1)Nc1ccc(cc1N(C)S(C)(=O)=O)OCCCCC2` [Compound A24, N-(3^5-chloro-1^4-(4-(dimethylamino)piperidin-1-yl)-1^6-methoxy-6-oxa-2,4-diaza-3(2,4)-pyrimidina-1(1,3),5(1,4)-dibenzenacycloundecaphane-5^2-yl)-N-methylmethanesulfonamide], for which the IC50 turned out to be 3330 nM in the data set on Ba/F3_WT cell, 2.7 nM at EGFR_L858R/T790M/C797S and 10.8 nM on EGFR_WT. Also, in data set [2], the GI50 turned out to be 63 nM.

Turning to `CCN(c1cc2ccc1Nc1nc(ncc1Br)Nc1cc(c(N3CCC(N4CCN(C)CC4)CC3)cc1OC)CCCCCO2)S(C)(=O)=O` [Compound A30, N-(3^5-bromo-1^6-methoxy-1^4-(4-(4-methylpiperazin-1-yl)piperidin-1-yl)-6-oxa-2,4-diaza-3(2,4)-pyrimidina-1(1,3),5(1,4)-dibenzenacycloundecaphane-5^2-yl)-N-ethylmethanesulfonamide], the IC50 in the data set on Ba/F3_WT cell was determined as 1690 nM; on EGFR_L858R/T790M/C797S it was 0.6 nM; on EGFR_WT, 14.9 nM. Also, in data set [2], the GI50 came out at 22.4 nM.

Turning to `CCN(c1cc2ccc1Nc1nc(ncc1Cl)Nc1cc(c(N3CCN(C)CC3)cc1OC)CCCCCCO2)S(C)(=O)=O` [Compound A23, N-(3^5-chloro-1^6-methoxy-1^4-(4-methylpiperazin-1-yl)-6-oxa-2,4-diaza-3(2,4)-pyrimidina-1(1,3),5(1,4)-dibenzenacyclododecaphane-5^2-yl)-N-ethylmethanesulfonamide], the IC50 came to 2660 nM in the data set on Ba/F3_WT cell and 2.6 nM at EGFR_L858R/T790M/C797S. For the same compound, in data set [2], the GI50 was determined as 157 nM.

`CCS(=O)(=O)N(C)c1cc2ccc1Nc1nc(ncc1Cl)Nc1cc(c(N3CCN(C)CC3)cc1OC)CCCCCO2` [Compound A8, N-(3^5-chloro-1^6-methoxy-1^4-(4-methylpiperazin-1-yl)-6-oxa-2,4-diaza-3(2,4)-pyrimidina-1(1,3),5(1,4)-dibenzenacycloundecaphane-5^2-yl)-N-methylethanesulfonamide]: the concentration for half-maximal inhibition (IC50) in the data set with Ba/F3_WT cell amounted to 3430 nM; at EGFR_L858R/T790M/C797S, 2.7 nM. In addition, the GI50 in data set [2] was 538 nM.

On to `COc1cc(N2CCC(N3CCN(C)CC3)CC2)c2cc1Nc1ncc(Br)c(n1)Nc1ccc(cc1P(C)(C)=O)OCCCCCC2` [Compound A34, (3^5-bromo-1^6-methoxy-1^4-(4-(4-methylpiperazin-1-yl)piperidin-1-yl)-6-oxa-2,4-diaza-3(2,4)-pyrimidina-1(1,3),5(1,4)-dibenzenacyclododecaphane-5^2-yl)dimethylphosphine oxide], for which the IC50 with Ba/F3_WT cell worked out at 3820 nM; at EGFR_L858R/T790M/C797S, 2 nM. The GI50 in data set [2] amounted to 142 nM.

`COc1cc(N2CCN(C3CCN(C)CC3)CC2)c2cc1Nc1ncc(Cl)c(n1)Nc1ccc(cc1N(C)S(C)(=O)=O)OCCCCC2` [Compound A20, N-(3^5-chloro-1^6-methoxy-1^4-(4-(1-methylpiperidin-4-yl)piperazin-1-yl)-6-oxa-2,4-diaza-3(2,4)-pyrimidina-1(1,3),5(1,4)-dibenzenacycloundecaphane-5^2-yl)-N-methylmethanesulfonamide]: the IC50 was found to be 1450 nM in the data set with Ba/F3_WT cell and 2.6 nM on EGFR_L858R/T790M/C797S. In addition, the GI50 in data set [2] came out at 89 nM.

In the case of `COc1cc(N2CCN(C)CC2)c2cc1Nc1ncc(Cl)c(n1)Nc1ccc(cc1N(C)S(C)(=O)=O)OCCCCC2` [Compound A3, N-(3^5-chloro-1^6-methoxy-1^4-(4-methylpiperazin-1-yl)-6-oxa-2,4-diaza-3(2,4)-pyrimidina-1(1,3),5(1,4)-dibenzenacycloundecaphane-5^2-yl)-N-methylmethanesulfonamide], the IC50 was 1180 nM in the data set with Ba/F3_WT cell and 9.86 nM on EGFR_L858R/T790M/C797S. Also, in data set [2], the GI50 came out at 135 nM.

Turning to `COc1cc(N2CCN(C)CC2)c2cc1Nc1ncc(Cl)c(n1)Nc1ccc(cc1N(C)S(C)(=O)=O)OCCCC2` [Compound A4, N-(3^5-chloro-1^6-methoxy-1^4-(4-methylpiperazin-1-yl)-6-oxa-2,4-diaza-3(2,4)-pyrimidina-1(1,3),5(1,4)-dibenzenacyclodecaphane-5^2-yl)-N-methylmethanesulfonamide], the IC50 with Ba/F3_WT cell stood at 3320 nM; on EGFR_L858R/T790M/C797S it was 46.5 nM. Further, the GI50 in data set [2] came out at 252 nM.
